From US12419307B2, “Mixtures comprising indazole pesticides” (FMC Corporation, priority 2019, dated 2025)
Read-outs that look alike come from different tables or passages of the source.

Key:
Assay type in all cases: in vivo
[1] = tested on: Western Flower Thrips (Frankliniella occidentalis Pergande); experiment: Test B: Western Flower Thrips control on bean plants, plant damage rating converted to % plant protection after 7 days; conditions: for pest or weed control at 2.93 ppm / pest or weed control at 16.1 ppm / pest or weed control at 0.4 ppm / pest or weed control at 2 ppm / pest or weed control at 1.5 ppm / pest or weed control at 4.5 ppm / pest or weed control at 3.18 ppm / pest or weed control at 9.75 ppm: Frankliniella occidentalis, 168 h, read-out: Plant Protection (obs); for Plant Damage (obs): Table 3a; for Plant Damage (obs) / Plant Protection (obs): applied alone
Protocol: (§1) The pest control protection afforded by the mixtures or compositions is not limited, however, to these species. The analysis of enhanced activity between the mixtures or compositions was determined using Colby's equation. The average % mortality data for the test compounds alone were inserted into the Colby's equation. If the observed (obs) average % mortality was higher than “p”, the expected (exp) % mortality, the mixture or composition had enhanced effects. If the observed average % mortality was equal to or lower than the expected mortality, the mixture or composition either had no enhanced effect. For bioassays where insect feeding damage was evaluated, enhanced activity is identified when the observed plant damage is less than the expected plant damage rating; ratings ranged between 0 (no damage) and 10 (dead plant) and each value was converted to a % plant protection. 100−(Obs Plant Damage*10)
Thus, a plant given a plant damage rating of 3 out of 10 is equivalent to 70% plant protection In all of these tests, compounds of Formula I are Compounds 1 (Cpd 1), 2 (Cpd2), and 3 (Cpd3) and compounds of Formula II are compounds 4 (Cpd4) and 5 (Cpd 5).
For evaluating control of the Western Flower Thrips (Frankliniella occidentalis Pergande) through contact and/or systemic means, each test unit consisted of a small open container with a 5- to 7-day-old bean (var. Soleil) plant inside.
Test solutions were formulated and sprayed with 3 replications as described for Test A. After spraying, the test units were allowed to dry for 1 hour, 22 to 27 adult thrips were added to each unit and then a black, screened cap was placed on top. The test units were held for 7 days at 25° C. and 45-55% relative humidity. To evaluate the level of plant protection provided by each treatment, each test unit was then visually assessed for plant damage inflicted by insect feeding and rated 0-10, where 0=undamaged and 10=plant is dead; the results are listed in Tables 3a-g.

[2] = tested on: corn planthopper (Peregrinus maidis (Ashmead)); experiment: Test C: corn planthopper control on corn plants, insect mortality after 6 days; conditions: Peregrinus maidis, read-out: % Mortality (obs)
Protocol: as §1
For evaluating control of corn planthopper (Peregrinus maidis (Ashmead)) through contact and/or systemic means, the test unit consisted of a small open container with a 3-4-day-old corn (maize) plant inside. White sand was added to the top of the soil prior to application of the test compound.
Test compounds were formulated and sprayed at 250 and/or 50 ppm and/or 10 ppm. After spraying of the formulated test compound, the test units were allowed to dry for 1 h before they were post-infested with ˜15-20 nymphs (18-to-21-day-old). […]

[3] = tested on: fall armyworm (Spodoptera frugiperda (J. E. Smith)); experiment: Test E: fall armyworm control on corn plants, plant damage rating and mortality after 6 days; conditions: Spodoptera frugiperda, 144 h, read-out: Plant Protection (obs)
Protocol: as §1
For evaluating control of fall armyworm (Spodoptera frugiperda (J. E. Smith)) the test unit consisted of a small open container with a 4-5-day-old corn (maize) plant inside. This was pre-infested with 10-15 1-day-old larvae on a piece of insect diet. Test compounds were formulated and sprayed with 3 replications as described for Test A. After spraying of the formulated test compound, the test units were maintained in a growth chamber for 6 days at 25° C. and 70% relative humidity. Plant feeding damage was then visually assessed based on foliage consumed, and larvae were assessed for mortality. Each test unit was then visually assessed for plant damage and rated 0-10, where 0=undamaged and 10=plant is dead; the results are listed in Tables 6d-i.

[4] = tested on: diamondback moth (Plutella xylostella L.); experiment: Test E: diamondback moth control through ingestion only, sprayed cabbage leaf tissue (Dipel), mortality after 4 days; conditions: Table 6c, read-out: % Mortality (obs)
Protocol: as §1
For evaluating control of diamondback moth (Plutella xylostella L.) through ingestion only, the test substance Dipel® (active ingredient Bacillus thuringiensis kurstaki) was formulated by diluting in water and then adding an MSO based adjuvant at 0.1% v/v. Cabbage plants were sprayed with Dipel® to runoff and allowed to dry for three hours. Once dry, plants leaf tissue was excised and one piece was placed into one well in an eight well tray. Test units were maintained in a growth chamber at 24-25° C. and 70% relative humidity.

CC(C)(CS(C)(=O)=O)NC(=O)c1ccc(F)c2nn(-c3cccnc3)cc12 [Cpd 3, N-[1,1-dimethyl-2-(methylsulfonyl)ethyl]-7-fluoro-2-(3-pyridinyl)-2H-indazole-4-carboxamide]
pest or weed control at 2.93 ppm ([1]; Table 3e, 2.93 ppm): 83.3% | pest or weed control at 16.1 ppm ([1]; Table 3e, 16.1 ppm): 80% | pest or weed control at 2.93 ppm ([1]; Table 3f, 2.93 ppm): 40% | pest or weed control at 16.1 ppm ([1]; Table 3f, 16.1 ppm): 86.7% | pest or weed control at 2.93 ppm ([1]; Table 3g, 2.93 ppm): 43.3% | pest or weed control at 16.1 ppm ([1]; Table 3g, 16.1 ppm): 70% | Plant Damage (obs) ([1]; 2.93 ppm): 13.3% | Plant Damage (obs) ([1]; 16.1 ppm): 83.3% | Plant Protection (obs) ([1]; Table 3b, 2.93 ppm): 40.0% | Plant Protection (obs) ([1]; Table 3b, 16.1 ppm): 76.7% | Plant Protection (obs) ([1]; Table 3c, 2.93 ppm): 33.3% | Plant Protection (obs) ([1]; Table 3c, 16.1 ppm): 80.0% | mortality at 50 ppm ([2]; 96 h, Table 4d): 8.3% | mortality at 250 ppm ([2]; 96 h, Table 4d): 0% | mortality at 50 ppm ([2]; Table 4e): 5% | mortality at 250 ppm ([2]; Table 4e): 1.2% | pest or weed control at 50 ppm ([3]; Table 6e): 0% | pest or weed control at 250 ppm ([3]; Table 6e): 0%

O=C(NC1(C(F)F)CC1)c1cccc2nn(-c3cccnc3)cc12 [Cpd 5, N-[1-(difluoromethyl)cyclopropyl]-2-(3-pyridinyl)-2H-indazole-4-carboxamide]
mortality at 50 ppm ([4]; 50 ppm): 21% | mortality at 250 ppm ([4]; 250 ppm): 25% | pest or weed control at 0.4 ppm ([1]; Table 3e, 0.4 ppm): 70% | pest or weed control at 2 ppm ([1]; Table 3e, 2 ppm): 26.7% | pest or weed control at 0.4 ppm ([1]; Table 3f, 0.4 ppm): 33.3% | pest or weed control at 2 ppm ([1]; Table 3f, 2 ppm): 60% | pest or weed control at 0.4 ppm ([1]; Table 3g, 0.4 ppm): 13.3% | pest or weed control at 2 ppm ([1]; Table 3g, 2 ppm): 26.7% | pest or weed control at 0.4 ppm ([1]; Table 3d, 0.4 ppm): 43.3% | pest or weed control at 2 ppm ([1]; Table 3d, 2 ppm): 63.3% | Plant Damage (obs) ([1]; 0.4 ppm): 20.0% | Plant Damage (obs) ([1]; 2 ppm): 40.0% | Plant Protection (obs) ([1]; Table 3b, 0.4 ppm): 23.3% | Plant Protection (obs) ([1]; Table 3b, 2 ppm): 36.7% | Plant Protection (obs) ([1]; Table 3c, 0.4 ppm): 16.7% | Plant Protection (obs) ([1]; Table 3c, 2 ppm): 40.0% | mortality at 50 ppm ([2]; 96 h, Table 4d): 5.3% | mortality at 250 ppm ([2]; 96 h, Table 4d): 75% | mortality at 50 ppm ([2]; Table 4e): 21.6% | mortality at 250 ppm ([2]; Table 4e): 13.1% | mortality at 50 ppm ([2]; Table 4f): 15.3% | mortality at 250 ppm ([2]; Table 4f): 22.4% | mortality at 50 ppm ([2]; Table 4g): 15.3% | mortality at 250 ppm ([2]; Table 4g): 22.4% | pest or weed control at 50 ppm ([3]; Table 6e): 0% | pest or weed control at 250 ppm ([3]; Table 6e): 0% | pest or weed control at 50 ppm ([3]; Table 6f): 0% | pest or weed control at 250 ppm ([3]; Table 6f): 0% | pest or weed control at 50 ppm ([3]; Table 6g): 0% | pest or weed control at 250 ppm ([3]; Table 6g): 0% | pest or weed control at 50 ppm ([3]; Table 6i): 0% | pest or weed control at 250 ppm ([3]; Table 6i): 13.3% | pest or weed control at 50 ppm ([3]; Table 6h): 0% | pest or weed control at 250 ppm ([3]; Table 6h): 0% | pest or weed control at 50 ppm ([3]; Table 6d): 0% | pest or weed control at 250 ppm ([3]; Table 6d): 13.3%

C[S+]([O-])CC(C)(C)NC(=O)c1ccc(F)c2nn(-c3cccnc3)cc12 (stereo not shown) [Cpd 2, N-[1,1-dimethyl-2-(methylsulfinyl)ethyl]-7-fluoro-2-(3-pyridinyl)-2H-indazole-4-carboxamide]
pest or weed control at 1.5 ppm ([1]; Table 3e, 1.5 ppm): 66.7% | pest or weed control at 4.5 ppm ([1]; Table 3e, 4.5 ppm): 43.3% | pest or weed control at 1.5 ppm ([1]; Table 3f, 1.5 ppm): 43.3% | pest or weed control at 4.5 ppm ([1]; Table 3f, 4.5 ppm): 73.3% | pest or weed control at 1.5 ppm ([1]; Table 3g, 1.5 ppm): 16.7% | pest or weed control at 4.5 ppm ([1]; Table 3g, 4.5 ppm): 33.3% | pest or weed control at 1.5 ppm ([1]; Table 3d, 1.5 ppm): 36.7% | pest or weed control at 4.5 ppm ([1]; Table 3d, 4.5 ppm): 76.7% | Plant Damage (obs) ([1]; 1.5 ppm): 13.3% | Plant Damage (obs) ([1]; 4.5 ppm): 56.7% | Plant Protection (obs) ([1]; Table 3b, 1.5 ppm): 16.7% | Plant Protection (obs) ([1]; Table 3b, 4.5 ppm): 83.3% | Plant Protection (obs) ([1]; Table 3c, 1.5 ppm): 43.3% | Plant Protection (obs) ([1]; Table 3c, 4.5 ppm): 80.0% | mortality at 50 ppm ([2]; 96 h, Table 4d): 0% | mortality at 250 ppm ([2]; 96 h, Table 4d): 54.1% | mortality at 50 ppm ([2]; Table 4e): 7.3% | mortality at 250 ppm ([2]; Table 4e): 22.4% | pest or weed control at 50 ppm ([3]; Table 6e): 0% | pest or weed control at 250 ppm ([3]; Table 6e): 0%

CSCC(C)(C)NC(=O)c1ccc(F)c2nn(-c3cccnc3)cc12 [Cpd 1, N-[1,1-dimethyl-2-(methylthio)ethyl]-7-fluoro-2-(3-pyridinyl)-2H-indazole-4-carboxamide]
pest or weed control at 3.18 ppm ([1]; Table 3e, 3.18 ppm): 76.7% | pest or weed control at 9.75 ppm ([1]; Table 3e, 9.75 ppm): 66.7% | pest or weed control at 3.18 ppm ([1]; Table 3f, 3.18 ppm): 33.3% | pest or weed control at 9.75 ppm ([1]; Table 3f, 9.75 ppm): 80% | pest or weed control at 3.18 ppm ([1]; Table 3g, 3.18 ppm): 10% | pest or weed control at 9.75 ppm ([1]; Table 3g, 9.75 ppm): 76.7% | pest or weed control at 3.18 ppm ([1]; Table 3d, 3.18 ppm): 63.3% | pest or weed control at 9.75 ppm ([1]; Table 3d, 9.75 ppm): 90% | Plant Damage (obs) ([1]; 3.18 ppm): 33.3% | Plant Damage (obs) ([1]; 9.75 ppm): 73.3% | Plant Protection (obs) ([1]; Table 3b, 3.18 ppm): 73.3% | Plant Protection (obs) ([1]; Table 3b, 9.75 ppm): 76.7% | Plant Protection (obs) ([1]; Table 3c, 3.18 ppm): 63.3% | Plant Protection (obs) ([1]; Table 3c, 9.75 ppm): 83.3% | mortality at 50 ppm ([2]; 96 h, Table 4d): 14.8% | mortality at 250 ppm ([2]; 96 h, Table 4d): 45.8% | mortality at 50 ppm ([2]; Table 4e): 18.9% | mortality at 250 ppm ([2]; Table 4e): 7.6% | pest or weed control at 50 ppm ([3]; Table 6e): 0% | pest or weed control at 250 ppm ([3]; Table 6e): 0%
